Key:
Streptococcus group E = experiment: Bactericide test, Streptococcus group E (agar streak plate); format: cell-based
Source text: (§1) Test formulations were examined for bactericidal and/or bacteriostatic activity against the test organisms shown in Tables A and B. These organisms were chosen as being representative of commercially important pathogens affecting animal agriculture. The antibiotic chlortetracycline was chosen as a positive control, since it has a broad spectrum of activity against a large number of organisms, and its activity can be used for comparative purposes.
(§2) Basic test formulations of the product of Examples I, II, III, and of chlortetracycline were prepared by dissolving 16 mg (0.016 g) in 2.0 ml of stock emulsifier solution (0.25% Triton X-155 in acetone by volume) and making each solution up to 50 ml with deionized water. The concentration of the test compound in the basic formulation was 320 ppm. Lower concentrations of the test compound were obtained by diluting the basic formulation with a 4% solution of the stock emulsifier in deionized water so that each dilution in the series differed only in test compound content.
(§3) Nutrient-tryptic soy agar (NTA) consisting of 2.0% Difco Bactoagar 0.8% nutrient broth (Difco), and 0.5% tryptic soy broth (Difco) was prepared and sterilized by autoclaving. A 2 ml aliquot of each test formulation was added to 8 ml of molten NTA. This mixture was then plated in a sterile polystyrene petri dish (100 × 15 mm). After the agar was set, suspensions of each of the test organisms were simultaneously streaked onto the surface of the agar. The inoculated plates were incubated for 48 hr at 28°C. The inhibition of growth of each organism was rated by visual comparison with the organism developing on non-treated agar. Growth inhibition reported as per cent control was rated in three categories as follows: 0% control, growth equivalent to that on non-treated agar; 50% control, sparse development and separated colonies; 100% control, no visible growth or development of colonies.

[1] = Growth promotion in chicks, Example XII first set (Table VI); format: in vivo, broiler cross chicks; conditions: for Average 4 Week Performance: Feed Efficiency / Average 4 Week Performance: Gain / Improved Response Over Basal Ration: Feed Efficiency / Improved Response Over Basal Ration: Gain: 25 g/T in basal ration, 4 weeks; for growth rate / feed efficiency, production parameters (in words): 25 g/T, first set of tests
Source text: This example compares growth promotion activity of the product of Example I with other growth promotants at a concentration of 25 g/T in the Basal Ration described in Example VII. The other growth promotants include the product described in Example I of U.S. Pat. No. 3,542,784 -- Burch and quinoxaline-1,4-dioxide. Day old broiler cross chicks were weight equalized into groups of eight chicks each, and four replicates of eight chicks each were fed the experimental rations over a 4 week period. […]

[2] = Growth promotion in chicks at 25 g/T, Example X (Table IV); format: in vivo, broiler cross chicks
Source text: (§4) This example compares growth promotion activity of the product of Example I with other growth promotants at a concentration of 25 g/T in the Basal Ration described in Example VII. The other growth promotants include the product described in Example I of U.S. Pat. No. 3,542,784 -- Burch and quinoxaline-1,4-dioxide. Day old broiler cross chicks were weight equalized into groups of eight chicks each, and four replicates of eight chicks each were fed the experimental rations over a 4 week period.

[3] = Growth promotion in chicks, Example XII repeat (Table VII); format: in vivo, broiler cross chicks; conditions: for growth rate / feed efficiency, production parameters (in words): 25 g/T, second set of tests
Source text: as §4
The growth promotion tests described in Example X were repeated with the additional testing the products of Examples II and III.

[4] = tested on: Bordetella bronchiseptica; experiment: Bactericide test, Bordetella bronchiseptica (agar streak plate); format: cell-based
Source text: as §1, §2, §3

Streptococcus faecalis = experiment: Bactericide test, Streptococcus faecalis (agar streak plate); format: cell-based
Source text: as §1, §2, §3
(§5) Test formulations of the product of Example IV were examined for bactericidal and/or bacteriostatic activity against the test organisms shown in Table B using the Bactericide Test described in Example V. The inhibition of organism growth with each diluted test formulation was rated visually by comparison with the organism developing on a non-treated control agar plate. Growth inhibition reported as per cent control was rated in three categories as follows: 0% control, growth equivalent to that on non-treated agar; 50% control is sparse development and separated colonies; and 100% control, development of individual colonies was not apparent.

Salmonella gallinarum = experiment: Bactericide test, Salmonella gallinarum (agar streak plate); format: cell-based
Source text: as §1, §2, §3, §5

Salmonella typhimurium = experiment: Bactericide test, Salmonella typhimurium (agar streak plate); format: cell-based
Source text: as §1, §2, §3

Streptococcus agalactiae = experiment: Bactericide test, Streptococcus agalactiae (agar streak plate); format: cell-based
Source text: as §1, §2, §3

Vibrio coli = experiment: Bactericide test, Vibrio coli (agar streak plate); format: cell-based
Source text: as §1, §2, §3

Staphylococcus aureus = experiment: Bactericide test, Staphylococcus aureus (agar streak plate); format: cell-based
Source text: as §1, §2, §3, §5

Salmonella cholerasuis = experiment: Bactericide test, Salmonella cholerasuis (agar streak plate); format: cell-based
Source text: as §1, §2, §3, §5

[5] = tested on: Erysipelothrix rhusiopathiae; experiment: Bactericide test, Erysipelothrix rhusiopathiae (agar streak plate); format: cell-based
Source text: as §1, §2, §3

[6] = Growth promotion in chicks at low feed levels, Example VIII (Table II); format: in vivo, broiler cross chicks; conditions: 10 g/T in basal ration; 4 weeks
Source text: Day old broiler cross chicks were weight equalized into groups of eight chicks each and were placed in battery brooders. The 32 chick treatment groups (four replicates) were fed one of the five rations described below for a 4 week period. Weekly measurements of body weights and feed consumption were made by replicate, and these measurements used to calculate weight gain and feed efficiency.
The basal ration was the basal ration used in Example VII above. The remaining five rations were obtained by mixing the indicated quantities of bacitracin (4 g/T), chlortetracycline (10 g/T), product of Example I (10 g/T), and product of Example III of U.S. Pat. No. 3,542,784 -- Burch (10 g/T) as growth promotants with the basal ration.

[7] = 100% inhibition at lower concentrations
[8] = 25 g/T in basal ration, 4 weeks

Compound: 2-[2-(5-nitro-2-furyl)vinyl]-4-(o-hydroxyanilino)quinazoline [Example III]
- % Inhibition (Streptococcus group E; 0.125 ppm): 100%
- % Inhibition (Streptococcus group E; 0.25 ppm): 100%
- % Inhibition (Streptococcus group E; 0.5 ppm): 100%
- % Inhibition (Streptococcus group E; 1 ppm): 100%
- % Inhibition (Streptococcus group E; 2 ppm): 100%
- % Inhibition (Streptococcus group E; 4 ppm): 100%
- % Inhibition (Streptococcus group E; 8 ppm): 100%
- % Inhibition (Streptococcus group E; 16 ppm): 100%
- % Inhibition (Streptococcus group E; 32 ppm): 100%
- % Inhibition (Streptococcus group E; 64 ppm): 100%
- effectiveness compared with chlortetracycline (in words) (Streptococcus group E; [7]): considerably more effective
- Average 4 Week Performance: Feed Efficiency [1]: 1.597
- Average 4 Week Performance: Gain [1]: 766.9 g
- Improved Response Over Basal Ration: Feed Efficiency [1]: +2.3%
- Improved Response Over Basal Ration: Gain [1]: +3.1%
- growth rate / feed efficiency, production parameters (in words) [1]: moderate improvements
- Average 4 Week Performance: Feed Efficiency [2, 8]: 1.503
- Average 4 Week Performance: Gain [2, 8]: 812.7 g
- Improved Response Over Basal Ration: Feed Efficiency [2, 8]: +3.2%
- Improved Response Over Basal Ration: Gain [2, 8]: +6.2%
- Average 4 Week Performance: Feed Efficiency [3, 8]: 1.669
- Average 4 Week Performance: Gain [3, 8]: 723.7 g
- Improved Response Over Basal Ration: Feed Efficiency [3, 8]: +6.5%
- Improved Response Over Basal Ration: Gain [3, 8]: +6.0%
- growth rate / feed efficiency, production parameters (in words) [3]: more substantial response
- % Inhibition ([4]; 0.125 ppm): 100%
- % Inhibition ([4]; 0.25 ppm): 100%
- % Inhibition ([4]; 0.5 ppm): 100%
- % Inhibition ([4]; 1 ppm): 100%
- % Inhibition ([4]; 2 ppm): 100%
- % Inhibition ([4]; 4 ppm): 100%
- % Inhibition ([4]; 8 ppm): 100%
- % Inhibition ([4]; 16 ppm): 100%
- % Inhibition ([4]; 32 ppm): 100%
- % Inhibition ([4]; 64 ppm): 100%
- effectiveness compared with chlortetracycline (in words) [4, 7]: considerably more effective
- % Inhibition (Streptococcus faecalis; 0.125 ppm): 0%
- % Inhibition (Streptococcus faecalis; 0.25 ppm): 0%
- effectiveness compared with chlortetracycline (in words) (Streptococcus faecalis; [7]): considerably more effective
- % Inhibition (Salmonella gallinarum; 0.125 ppm): 0%
- % Inhibition (Salmonella gallinarum; 0.25 ppm): 0%
- % Inhibition (Salmonella gallinarum; 0.5 ppm): 0%
- % Inhibition (Salmonella gallinarum; 1 ppm): 0%
- % Inhibition (Salmonella gallinarum; 2 ppm): 0%
- % Inhibition (Salmonella gallinarum; 4 ppm): 50%
- % Inhibition (Salmonella gallinarum; 8 ppm): 50%
- % Inhibition (Salmonella gallinarum; 16 ppm): 100%
- % Inhibition (Salmonella gallinarum; 32 ppm): 100%
- % Inhibition (Salmonella gallinarum; 64 ppm): 100%
- % Inhibition (Salmonella typhimurium; 0.125 ppm): 0%
- % Inhibition (Salmonella typhimurium; 0.25 ppm): 0%
- % Inhibition (Salmonella typhimurium; 0.5 ppm): 0%
- % Inhibition (Salmonella typhimurium; 1 ppm): 0%
- % Inhibition (Salmonella typhimurium; 2 ppm): 0%
- % Inhibition (Salmonella typhimurium; 4 ppm): 0%
- % Inhibition (Salmonella typhimurium; 8 ppm): 0%
- % Inhibition (Salmonella typhimurium; 16 ppm): 0%
- % Inhibition (Salmonella typhimurium; 32 ppm): 0%
- % Inhibition (Salmonella typhimurium; 64 ppm): 0%
- % Inhibition (Streptococcus agalactiae; 0.125 ppm): 100%
- % Inhibition (Streptococcus agalactiae; 0.25 ppm): 100%
- % Inhibition (Streptococcus agalactiae; 0.5 ppm): 100%
- % Inhibition (Streptococcus agalactiae; 1 ppm): 100%
- % Inhibition (Streptococcus agalactiae; 2 ppm): 100%
- % Inhibition (Streptococcus agalactiae; 4 ppm): 100%
- % Inhibition (Streptococcus agalactiae; 8 ppm): 100%
- % Inhibition (Streptococcus agalactiae; 16 ppm): 100%
- % Inhibition (Streptococcus agalactiae; 32 ppm): 100%
- % Inhibition (Streptococcus agalactiae; 64 ppm): 100%
- effectiveness compared with chlortetracycline (in words) (Streptococcus agalactiae; [7]): considerably more effective
- % Inhibition (Vibrio coli; 0.125 ppm): 100%
- % Inhibition (Vibrio coli; 0.25 ppm): 100%
- % Inhibition (Vibrio coli; 0.5 ppm): 100%
- % Inhibition (Vibrio coli; 1 ppm): 100%
- % Inhibition (Vibrio coli; 2 ppm): 100%
- % Inhibition (Vibrio coli; 4 ppm): 100%
- % Inhibition (Vibrio coli; 8 ppm): 100%
- % Inhibition (Vibrio coli; 16 ppm): 100%
- % Inhibition (Vibrio coli; 32 ppm): 100%
- % Inhibition (Vibrio coli; 64 ppm): 100%
- effectiveness compared with chlortetracycline (in words) (Vibrio coli; [7]): considerably more effective
- % Inhibition (Staphylococcus aureus; 0.125 ppm): 0%
- % Inhibition (Staphylococcus aureus; 0.25 ppm): 0%
- % Inhibition (Staphylococcus aureus; 0.5 ppm): 0%
- % Inhibition (Staphylococcus aureus; 1 ppm): 0%
- % Inhibition (Staphylococcus aureus; 2 ppm): 0%
- % Inhibition (Staphylococcus aureus; 4 ppm): 0%
- % Inhibition (Staphylococcus aureus; 8 ppm): 0%
- % Inhibition (Staphylococcus aureus; 16 ppm): 0%
- % Inhibition (Staphylococcus aureus; 32 ppm): 0%
- % Inhibition (Staphylococcus aureus; 64 ppm): 0%
- % Inhibition (Salmonella cholerasuis; 0.125 ppm): 0%
- % Inhibition (Salmonella cholerasuis; 0.25 ppm): 0%
- % Inhibition (Salmonella cholerasuis; 0.5 ppm): 0%
- % Inhibition (Salmonella cholerasuis; 1 ppm): 0%
- % Inhibition (Salmonella cholerasuis; 2 ppm): 0%
- % Inhibition (Salmonella cholerasuis; 16 ppm): 100%
- % Inhibition (Salmonella cholerasuis; 32 ppm): 100%
- % Inhibition (Salmonella cholerasuis; 64 ppm): 100%
- % Inhibition ([5]; 1 ppm): 100%
- % Inhibition ([5]; 2 ppm): 100%
- % Inhibition ([5]; 4 ppm): 100%
- % Inhibition ([5]; 8 ppm): 100%
- % Inhibition ([5]; 16 ppm): 100%
- % Inhibition ([5]; 32 ppm): 100%
- % Inhibition ([5]; 64 ppm): 100%
- effectiveness compared with chlortetracycline (in words) [5, 7]: considerably more effective

Compound: O=[N+]([O-])c1ccc(-c2nc(Nc3ccc(O)cc3)c3ccccc3n2)o1 [2-(5-nitro-2-furyl)-4-(p-hydroxyanilino)quinazoline, reference compound]
- Average 4 Week Performance: Feed Efficiency [1]: 1.675
- Average 4 Week Performance: Gain [1]: 736.9 g
- Improved Response Over Basal Ration: Feed Efficiency [1]: -2.5%
- Improved Response Over Basal Ration: Gain [1]: -1.0%
- growth rate / feed efficiency, production parameters (in words) [1]: essentially no effect on growth rate or feed efficiency
- effect on feed efficiency (in words) ([2]; 25 g/T): slight, if any, effect on feed efficiency
- growth response (in words) ([2]; 25 g/T): appeared to give a growth response
- growth rate / feed efficiency, production parameters (in words) [3]: essentially no effect on growth rate or feed efficiency
- Average 4 Week Performance: Feed Efficiency [6]: 1.726
- Average 4 Week Performance: Gain [6]: 723.1 g
- Improved Response Over Basal Ration: Feed Efficiency [6]: +1.9%
- Improved Response Over Basal Ration: Gain [6]: +0.4%

Source: patent US3970648A, “2-[2-(5-Nitro-2-furyl)vinyl]-4-(anilino)quinazolines” (Diamond Shamrock Corporation, priority 1974, dated 1976)
